Assay results: US20230117328A1, “METHODS TO TREAT CANCER USING (R)-N-(3-FLUORO-4-((3-((1-HYDROXYPROPAN-2-YL)AMINO)-1H-PYRAZOLO[3,4-B]PYRIDIN-4-YL)OXY)PHENYL)-3-(4-FLUOROPHENYL)-1-ISOPROPYL-2,4-DIOXO-1,2,3,4-TETRAHYDROPYRIMIDINE-5-CARBOXAMIDE” (Array BioPharma Inc., priority 2020, published 2023)
“Also recorded” adds a separate entry of the source.

Legend:
C57BL/6 mice = assay: Ocular histopathology (retina) in mice at terminal (Day 38) and recovery (Day 66) necropsy; type: in vivo; details: for animals affected by swelling of rod and cone processes (incidence and grade): terminal necropsy
Method: Eyes were harvested for histopathology assessment from the tumor-naïve groups as the terminal necropsy cohort on Day 38, the last day the 28-day dosing period. Since not all terminal necropsy groups were dosed for the entirety of the 28-day dosing period, some groups effectively experienced a 1-3 week recovery period. Eyes were harvested for histopathology assessment from the tumor-bearing groups as the recovery necropsy cohort on Day 66, the last day of the 28-day recovery period. Since not all recovery necropsy groups were dosed for the entirety of the 28-day dosing period, some of these groups effectively experienced an extended recovery period beyond the 28-day recovery period of an additional 1-3 weeks. […] This finding was only visualized under epifluorescent illumination and was characterized by scattered individual processes that were increased in diameter up to five times the surrounding processes, with increased autofluorescence. […] It remained unclear whether these findings were adverse, as no degenerative changes were observed. If the material affected vision, it would be considered adverse; however, as this study was not designed to test for alterations in vision, adversity could not be determined.
Terminal necropsy from non-tumor-bearing cohorts occurred at 28 days from the start of dosing, and eyes from 4-5 animals in each group were harvested for histopathology assessment. Since not all terminal necropsy groups were dosed for the entirety of the 28-day dosing period, some groups effectively experienced a 1-3 week recovery period. Recovery sacrifice from tumor-bearing cohorts occurred at 28 days after the 28-day dosing period, and eyes from 5 animals in each group were harvested for histopathology assessment. Since not all recovery necropsy groups were dosed for the entirety of the 28-day dosing period, some groups effectively experienced an extended recovery period beyond the 28-day recovery period of 1-3 weeks. Briefly, animals were euthanized by CO2 inhalation and eyes were harvested with forceps and placed in 1.5 mL modified Davidson's Fixative (Electron Microscopy Science, Cat. No. 64133-50, lot no. 190621-08) for up to 24 hours at room temperature. Tissues were then transferred to 1.5 ml 10% neutral buffered formalin (Thermo Scientific, cat. no. 9400-5, lot no. 435456) at room temperature. Fixed tissues were submitted Vet Path Services, Inc. (Mason, Ohio) for histological processing and microscopic evaluation.
Provantis™ pathology software v 10.1.0.1 was utilized for data capture and table generation. Histopathology grades were assigned as grade 1 (minimal), grade 2 (mild), grade 3 (moderate), grade 4 (marked), or grade 5 (severe) based on an increasing extent of change, unless otherwise specified. H&E stained slides were evaluated with standard light microscopy and epifluorescence (450-490 nm excitation).

CYP2D6 = CYP2D6 (Homo sapiens, UniProt P10635); assay: In vitro metabolism by CYP2D6; type: in vitro ADME
BCRP = biological target: T1, BCRP (Homo sapiens, UniProt Q9UNQ0); assay: BCRP substrate assessment in vitro; type: in vitro ADME
T1 sequence (Q9UNQ0 1-655): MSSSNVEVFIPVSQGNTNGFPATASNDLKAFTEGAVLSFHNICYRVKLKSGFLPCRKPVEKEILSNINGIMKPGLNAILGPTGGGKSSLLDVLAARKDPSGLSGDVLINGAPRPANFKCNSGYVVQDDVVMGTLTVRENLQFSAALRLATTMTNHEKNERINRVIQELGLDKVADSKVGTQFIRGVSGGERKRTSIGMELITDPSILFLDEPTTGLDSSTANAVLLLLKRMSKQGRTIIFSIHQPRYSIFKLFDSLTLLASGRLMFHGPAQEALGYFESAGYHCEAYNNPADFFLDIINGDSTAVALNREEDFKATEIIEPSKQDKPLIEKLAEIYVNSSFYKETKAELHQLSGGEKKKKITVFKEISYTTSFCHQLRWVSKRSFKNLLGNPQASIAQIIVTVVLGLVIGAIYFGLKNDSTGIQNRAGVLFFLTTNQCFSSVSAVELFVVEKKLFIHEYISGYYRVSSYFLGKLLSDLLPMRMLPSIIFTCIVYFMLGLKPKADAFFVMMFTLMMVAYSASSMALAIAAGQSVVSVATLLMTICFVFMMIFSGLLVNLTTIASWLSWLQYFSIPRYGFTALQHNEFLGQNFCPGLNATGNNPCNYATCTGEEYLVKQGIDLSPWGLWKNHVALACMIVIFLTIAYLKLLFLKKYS

CYP3A4 = CYP3A4 (Homo sapiens, UniProt P08684); assay: In vitro metabolism by CYP3A4; type: in vitro ADME
syngeneic tumor = assay: Re-challenge of cured tumor-bearing mice with the same syngeneic tumor; type: in vivo; details: tumor-bearing mice cured following treatment with Compound 1
[1] = tested on: female Sprague Dawley rats; details: female, Sprague Dawley, rat, in vivo
in vivo = details: female, rat
P-gp [2] = biological target: T2, P-gp (Homo sapiens, UniProt P08183); assay: P-gp inhibition; type: in vitro ADME
[3] = Tolerability (body weight loss, deaths) in MC-38 tumor-bearing cohorts; type: in vivo; details: for Deaths (any cause) / Maximum % Body Weight Loss: MC-38 tumor-bearing mice
Method: As monotherapy, anti-PD-1 was administered twice weekly (BIW) for 2 consecutive weeks by intraperitoneal (IP) injection at 200 μg/mouse (Days 10, 13, 17, and 20).
Animals were monitored for tumor growth and body weight 2-3 times per week based on outgrowth kinetics. Tumor diameter was measured with digital calipers, and the tumor volume in mm^3 was calculated by the formula: Volume=((width)^2×length)/2. Animals were removed from study if found moribund or if tumor volume exceeded 1500 mm^3.
Any animals remaining with no palpable tumors were scored as cures.
Survival was defined as morbidity, mortality or tumor size exceeding 1500 mm^3.

Aqueous solubility = type: physicochemical
P-gp [4] = biological target: T2, P-gp; assay: P-gp substrate assessment in vitro; type: in vitro ADME
[5] = Compound 1 50 mg/kg PO BID Days 10-16 (7 days) in combination with anti-PD-1 200 μg IP BIW (Days 10, 13, 17, 20)
[6] = Compound 1 50 mg/kg PO BID Days 10-16 and Days 24-30 (interval schedule) in combination with anti-PD-1 200 μg IP BIW (Days 10, 13, 17, 20)
[7] = Compound 1 50 mg/kg PO BID Days 10-23 (14 days) in combination with anti-PD-1 200 μg IP BIW (Days 10, 13, 17, 20)
[8] = Compound 1 50 mg/kg PO BID Days 10-30 (21 days) in combination with anti-PD-1 200 μg IP BIW (Days 10, 13, 17, 20)
[9] = Compound 1 50 mg/kg PO BID Days 10-37 (28 days) in combination with anti-PD-1 200 μg IP BIW (Days 10, 13, 17, 20)
[10] = Compound 1 monotherapy, 50 mg/kg PO BID Days 10-37 (28 days)

T2 sequence (P08183 whole entry): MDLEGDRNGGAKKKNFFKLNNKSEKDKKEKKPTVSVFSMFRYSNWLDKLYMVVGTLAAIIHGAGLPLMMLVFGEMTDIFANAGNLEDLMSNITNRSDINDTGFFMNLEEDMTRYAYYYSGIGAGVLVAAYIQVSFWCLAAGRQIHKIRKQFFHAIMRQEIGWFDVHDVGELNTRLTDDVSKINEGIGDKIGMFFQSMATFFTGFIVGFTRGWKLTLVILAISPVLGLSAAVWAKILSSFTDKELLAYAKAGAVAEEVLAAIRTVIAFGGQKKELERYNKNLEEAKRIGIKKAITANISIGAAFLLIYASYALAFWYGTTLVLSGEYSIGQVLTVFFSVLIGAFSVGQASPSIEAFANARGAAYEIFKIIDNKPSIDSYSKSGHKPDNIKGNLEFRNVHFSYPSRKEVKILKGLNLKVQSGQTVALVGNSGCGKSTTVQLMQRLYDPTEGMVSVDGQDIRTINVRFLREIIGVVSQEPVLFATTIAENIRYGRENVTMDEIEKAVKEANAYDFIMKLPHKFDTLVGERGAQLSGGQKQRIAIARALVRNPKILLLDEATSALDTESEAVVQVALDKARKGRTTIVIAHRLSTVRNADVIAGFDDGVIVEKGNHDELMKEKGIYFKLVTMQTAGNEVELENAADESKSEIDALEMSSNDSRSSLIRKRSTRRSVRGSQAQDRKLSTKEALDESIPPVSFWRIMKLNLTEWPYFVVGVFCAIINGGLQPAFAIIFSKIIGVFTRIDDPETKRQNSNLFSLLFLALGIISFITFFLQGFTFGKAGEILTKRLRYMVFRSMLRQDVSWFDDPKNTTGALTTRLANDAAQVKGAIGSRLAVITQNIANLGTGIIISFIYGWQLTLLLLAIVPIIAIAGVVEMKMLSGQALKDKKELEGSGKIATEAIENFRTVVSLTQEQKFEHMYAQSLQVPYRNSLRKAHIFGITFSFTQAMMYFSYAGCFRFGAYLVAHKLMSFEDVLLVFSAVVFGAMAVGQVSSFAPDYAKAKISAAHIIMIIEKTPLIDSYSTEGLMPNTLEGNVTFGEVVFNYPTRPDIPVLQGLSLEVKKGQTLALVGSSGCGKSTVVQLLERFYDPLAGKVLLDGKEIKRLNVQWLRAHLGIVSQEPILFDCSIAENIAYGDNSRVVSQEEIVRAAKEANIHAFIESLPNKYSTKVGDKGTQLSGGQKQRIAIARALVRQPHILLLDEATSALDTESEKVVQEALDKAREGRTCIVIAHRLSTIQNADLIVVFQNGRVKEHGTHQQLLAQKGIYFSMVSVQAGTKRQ
Chain of CYP2D6 (P10635 whole entry): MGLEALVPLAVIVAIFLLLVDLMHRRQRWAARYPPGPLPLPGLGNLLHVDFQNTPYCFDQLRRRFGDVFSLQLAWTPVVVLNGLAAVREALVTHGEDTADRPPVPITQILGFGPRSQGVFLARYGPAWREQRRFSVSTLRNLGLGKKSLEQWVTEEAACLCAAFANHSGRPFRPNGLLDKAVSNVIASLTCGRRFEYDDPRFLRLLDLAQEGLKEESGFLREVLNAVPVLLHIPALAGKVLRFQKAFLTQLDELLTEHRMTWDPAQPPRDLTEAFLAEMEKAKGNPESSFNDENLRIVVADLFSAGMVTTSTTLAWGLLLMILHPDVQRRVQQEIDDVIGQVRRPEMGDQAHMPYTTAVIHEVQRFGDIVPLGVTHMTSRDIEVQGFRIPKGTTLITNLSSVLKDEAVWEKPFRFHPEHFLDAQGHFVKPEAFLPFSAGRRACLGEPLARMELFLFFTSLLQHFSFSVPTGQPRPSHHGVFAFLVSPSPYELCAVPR
Chain of CYP3A4 (P08684 whole entry): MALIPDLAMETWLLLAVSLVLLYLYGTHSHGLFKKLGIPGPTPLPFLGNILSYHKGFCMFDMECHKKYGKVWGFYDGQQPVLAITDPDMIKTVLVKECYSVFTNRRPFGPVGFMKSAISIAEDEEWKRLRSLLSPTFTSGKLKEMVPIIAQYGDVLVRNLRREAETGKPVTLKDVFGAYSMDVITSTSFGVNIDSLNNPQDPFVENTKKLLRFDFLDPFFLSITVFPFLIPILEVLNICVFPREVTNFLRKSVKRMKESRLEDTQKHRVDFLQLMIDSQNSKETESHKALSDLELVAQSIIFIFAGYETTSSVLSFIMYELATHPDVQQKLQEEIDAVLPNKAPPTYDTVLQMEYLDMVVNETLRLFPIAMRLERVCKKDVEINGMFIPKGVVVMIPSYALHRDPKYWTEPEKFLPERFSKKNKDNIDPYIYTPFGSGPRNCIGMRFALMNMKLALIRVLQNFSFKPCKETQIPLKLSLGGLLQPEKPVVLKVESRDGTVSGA

Structure (SMILES): CC(C)n1cc(C(=O)Nc2ccc(Oc3ccnc4[nH]nc(N[C@H](C)CO)c34)c(F)c2)c(=O)n(-c2ccc(F)cc2)c1=O [Compound 1, (R)—N-(3-fluoro-4-((3-((1-hydroxypropan-2-yl)amino)-1H-pyrazolo[3,4-b]pyridin-4-yl)oxy)phenyl)-3-(4-fluorophenyl)-1-isopropyl-2,4-dioxo-1,2,3,4-tetrahydropyrimidine-5-carboxamide]
- abnormal ocular observation at recovery sacrifice (unlikely to be related to the test article) (C57BL/6 mice; Day 66, Compound 1 for four weeks in combination with anti-PD-1): unilateral focal atrophy of the outer nuclear layer in Animal 4
- recovery period within which Compound 1-related microscopic retinal changes may be resolved (C57BL/6 mice; mice, histopathology assessment of the retinas): 1-4 week
- animals affected by swelling of rod and cone processes (incidence and grade) (C57BL/6 mice; Compound 1 for four weeks as monotherapy): three animals were minimally affected and two animals were mildly affected
- animals affected by swelling of rod and cone processes (incidence and grade) (C57BL/6 mice; Compound 1 for four weeks in combination with anti-PD-1): four of five animals were minimally affected
- test article-related ocular changes at recovery sacrifice (C57BL/6 mice; tumor-bearing mice, Day 66, 28 days after the 28-day dosing period): no definitively Compound 1-related changes were observed; also recorded: no definitively test article-related changes were observed
- test article-related microscopic changes in retina at terminal necropsy (C57BL/6 mice; tumor-naive mice, Day 38, Compound 1 50 mg/kg BID for 28 days (four weeks), as monotherapy or in combination with anti-PD-1, seen only under epifluorescent illumination, 50 mg/kg): multifocal swelling of the rod and cone processes in the retina; also recorded: multifocal swelling of the Rod and Cone processes in retina
- metabolizing enzyme in vitro (CYP2D6): primarily metabolized by CYP3A4 and CYP2D6
- BCRP substrate status (BCRP): substrate of P-gp and BCRP
- metabolizing enzyme in vitro (CYP3A4): primarily metabolized by CYP3A4 and CYP2D6
- response of cured mice to subsequent re-challenge with the same syngeneic tumor (syngeneic tumor): resistant to subsequent re-challenge with the same syngeneic tumor
- therapeutic multiples compared to expected exposure at the starting dose of 25 mg QD [1]: 39-78
- STD10 for 14 days once daily dose administration ([1]; 14 days): 100 mg/kg
- NOAEL at 7 days (in vivo): 200 mg/kg
- P-gp inhibitor status (P-gp [2]): inhibitor of P-gp
- tolerability of doses and schedules ([3]; MC-38 study, Compound 1 50 mg/kg BID 7-28 days, monotherapy or with anti-PD-1 200 μg BIW, 50 mg/kg): tolerated as monotherapy and in combination with anti-PD-1; also recorded: tolerated at these doses and schedules
- Deaths (any cause) [3, 5]: 0/8
- Maximum % Body Weight Loss [3, 5]: 0.00%
- Deaths (any cause) [3, 6]: 0/8
- Maximum % Body Weight Loss [3, 6]: 0.23%
- Deaths (any cause) [3, 7]: 0/8
- Maximum % Body Weight Loss [3, 7]: 0.00%
- Deaths (any cause) [3, 8]: 0/8
- Maximum % Body Weight Loss [3, 8]: 2.98%
- Deaths (any cause) [3, 9]: 1/8
- Maximum % Body Weight Loss [3, 9]: 0.00%
- Deaths (any cause) [3, 10]: 2/8
- Maximum % Body Weight Loss [3, 10]: 5.17%
- aqueous solubility (Aqueous solubility): pH dependent
- P-gp substrate status (P-gp [4]): substrate of P-gp and BCRP
